According to patent US6670379B2, “Piperidine compounds for use as ccr-3 inhibitors” (Novartis AG, priority 2000, dated 2003):

Tests used:
[1] = biological target: alpha-1 adrenergic receptor; assay: alpha-1 adrenergic receptor radioligand binding assay ([125I]-HEAT, rat cerebral cortex membranes); conditions: for IC50: [125I]-HEAT 40 pM, 37° C. for 60 min, read-out: IC50 (inhibition of binding of the alpha-1 adrenergic receptor)
Procedure: Cerebral cortices from male Sprague-Dawley rats (175-200 g) are dissected and homogenised in 10 volumes of ice cold 0.32 M sucrose (containing 1 mM MgCl2 dihydrate and 1 mM K2HPO4) with a glass/teflon homogeniser. The membranes are centrifuged at 1000×g for 15 min., the pellet discarded and the centrifugation repeated. The supernatants are pooled and centrifuged at 18,000×g for 15 min. The pellet is osmotically shocked in 10 volumes of water and kept on ice for 30 min. The suspension is centrifuged at 39,000×g for 20 min., resuspended in Krebs-Henseleit buffer pH 7.4 (1.17 mM MgSO4 anhydrous, 4.69 mM KCl, 0.7 mM K2HPO4 anhydrous, 0.11M NaCl, 11 mM D-glucose and 25 mM NaHCO3) containing 20 mM Tris, and kept for 2 days at −20° C. The membranes are then thawed at 20-23° C., washed three times with Krebs-Henseleit buffer by centrifugation at 18,000×g for 15 min., left overnight at 4° C. and washed again three times. The final pellet is resuspended with a glass/teflon homogeniser in 125 mL/100 membranes in the same buffer. A sample is taken to determine the protein concentration (using the Bradford Assay with gamma globulin as the standard) and the remainder aliquoted and stored at −80° C.
The resulting membranes are subjected to a radioligand binding assay. […] The plates are incubated at 37° C. for 60 min., after which rapid vacuum filtration over Whatman GF/C 96 well filter plates is carried out. Each plate is then washed three times with 10 ml of ice cold assay buffer using a Brandel Cell harvester (Gaithersburg, Md.). Following drying of the plates for 3 h. at 50° C., 40 μL of Microscint 20 is added to each well, the plates incubated at room temperature for a further 20 min. and the retained radioactivity quantified in a Packard Topcount NXT scintillation counter.
Stock solutions of test compounds are dissolved initially in 100% DMSO and diluted with assay buffer to the required concentrations to yield 1% (v/v) DMSO.

human CCR-3 = biological target: T1, human CCR-3 (Homo sapiens, UniProt P51677); assay: CCR-3 Binding Assay (SPA, [125I]-human eotaxin); conditions: membranes of RBL-2H3 cells stably expressing CCR3; 50 pM [125I]-human eotaxin; 4 hours at room temperature; read-out: IC50 (inhibition of binding of human eotaxin to human CCR-3)
T1 construct: expressed in transfected cells; host or cells: rat basophil leukemia (RBL-2H3) cells
T1 sequence (P51677 1-355): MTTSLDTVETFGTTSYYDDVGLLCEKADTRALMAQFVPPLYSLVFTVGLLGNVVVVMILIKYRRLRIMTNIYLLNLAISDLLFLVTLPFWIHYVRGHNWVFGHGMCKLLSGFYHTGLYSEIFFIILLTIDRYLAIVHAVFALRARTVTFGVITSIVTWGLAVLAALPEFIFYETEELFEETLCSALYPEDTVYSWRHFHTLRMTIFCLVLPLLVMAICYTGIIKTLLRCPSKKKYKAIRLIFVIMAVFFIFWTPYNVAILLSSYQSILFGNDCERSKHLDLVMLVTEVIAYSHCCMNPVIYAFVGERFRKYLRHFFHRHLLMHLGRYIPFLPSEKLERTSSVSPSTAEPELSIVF
Procedure: In this assay the effect of agents of the invention on the binding of human eotaxin to human CCR-3 is determined. Recombinant cells expressing human CCR-3 are captured by wheatgerm agglutinin (WGA) polyvinyltoluidene (PVT) SPA beads (available from Amersham), through a specific interaction between the WGA and carbohydrate residues of glycoproteins on the surface of the cells. [^125I]-human eotaxin (available from Amersham) binds specifically to CCR-3 receptors bringing the [^125I]-human eotaxin in close proximity to the SPA beads. Emitted â-particles from the [^125I]-human eotaxin excite, by its proximity, the fluorophore in the beads and produce light.
Preparation of Assay Buffer: 5.96 g HEPES and 7.0 g sodium chloride are dissolved in distilled water and 1M aqueous CaCl2 (1 mL) and 1M aqueous MgCl2 (5 mL) are added. The pH is adjusted to 7.6 with NaOH and the solution made to a final volume of 1 L using distilled water. 5 g bovine serum albumin and 0.1 g sodium azide are then dissolved in the solution and the resulting buffer stored at 4° C. A Complete™ protease inhibitor cocktail tablet (available from Boehringer) is added per 50 mL of the buffer on the day of use.
Preparation of Homogenisation Buffer: Tris-base (2.42 g) is dissolved in distilled water, the pH of the solution is adjusted to 7.6 with hydrochloric acid and the solution is diluted with distilled water to a final volume of 1L. The resulting buffer is stored at 4° C. A Complete™ protease inhibitor cocktail tablet is added per 50 mL of the buffer on the day of use.
Preparation of membranes: Confluent rat basophil leukemia (RBL-2H3) cells stably expressing CCR3 are removed from tissue culture flasks using enzyme-free cell dissociation buffer and resuspended in phosphate-buffered saline. The cells are centrifuged (800 g, 5 minutes), the pellet resuspended in ice-cold homogenisation buffer using 1 mL homogenisation buffer per gram of cells and incubated on ice for 30 minutes. The cells are homogenised on ice with 10 strokes in a glass mortar and pestle. The homogenate is centrifuged (800 g, 5 minutes, 4° C.), the supernatant further centrifuged (48,000 g, 30 minutes, 4° C.) and the pellet redissolved in Homogenisation Buffer containing 10% (v/v) glycerol. The protein content of the membrane preparation is estimated by the method of Bradford (Anal.Biochem. (1976) 72:248) and aliquots are snap frozen and stored at −80° C. The assay is performed in a final volume of 250 μL per well of an Optiplate (ex Canberra Packard). To selected wells of the Optiplate are added 50 μL of solutions of a test compound in Assay Buffer containing 5% DMSO (concentrations from 0.1 nM to 10 μM). To determine total binding, 50 μL of the Assay Buffer containing 5% DMSO is added to other selected wells. To determine non-specific binding, 50 μL of 100 nM human eotaxin (ex R&D Systems) in Assay Buffer containing 5% DMSO is added to further selected wells. To all wells are added 50 μL [^125I]-Human eotaxin (ex Amersham) in Assay Buffer containing 5% DMSO at a concentration of 250 pM (to give a final concentration of 50 pM per well), 50 μL of WGA-PVT SPA beads in Assay Buffer (to give a final concentration of 1.0 mg beads per well) and 100 μL of the membrane preparation at a concentration of 100 μg protein in Assay Buffer (to give a final concentration of 10 μg protein per well). The plate is then incubated for 4 hours at room temperature. The plate is sealed using TopSeal-S (ex Canberra Packard) according to the manufacturer's instructions. The resulting scintillations are counted using a Canberra Packard TopCount, each well being counted for 1 minute. The concentration of test compound at which 50% inhibition occurs (IC50) is determined from concentration-inhibition curves in a conventional manner.

| SMILES | IC50 [1] [nM] | IC50 (human CCR-3) [nM] | melting point [°C] | Kd [1] [nM] |
| --- | --- | --- | --- | --- |
| N#Cc1cccc(/C=C/C(=O)N[C@H](Cc2ccccc2)CN2CCC(C(=O)c3ccc(F)cc3)CC2)c1 [Example 2, (E)-N-{(R)-1-Benzyl-2-[4-(4-fluoro-benzoyl)-piperidin-1-yl]-ethyl}-3-(3-cyano-phenyl)-acrylamide] | 221 | 68 | – | – |
| COc1ccc(Br)cc1/C=C/C(=O)N[C@H](CO)CN1CCC(C(=O)c2ccc(F)cc2)CC1 [Example 25] | 387 | 11 | – | – |
| COc1ccc(C#N)cc1/C=C/C(=O)N[C@H](CO)CN1CCC(C(=O)c2ccc(Cl)cc2)CC1 [Example 38, (E)-N-{(S)-2-[4-(4-chloro-benzoyl)-piperidin-1-yl]-1-hydroxymethyl-ethyl}-3-(5-cyano-2-methoxy-phenyl)-acrylamide] | 1520 | 14 | – | – |
| COc1ccc(Br)cc1/C=C/C(=O)N[C@H](CO)CN1CCC(C(=O)c2ccc(Cl)cc2)CC1 [Example 43] | 356 | 22 | – | – |
| COc1ccc(C#N)cc1/C=C/C(=O)N[C@H](Cc1ccncc1)CN1CCC(C(=O)c2ccc(F)cc2)CC1 [Example 44] | 331 | 25 | – | – |
| COc1ccc(C#N)cc1/C=C/C(=O)N[C@H](CO)CN1CCC(C(=O)c2ccc(Cl)cc2)CC1 [Example 47, (E)-N-{(S)-1-[4-(4-Chloro-benzoyl)-piperidin-1-ylmethyl]-2-hydroxy-ethyl}-3-(5-cyano-2-methoxy-phenyl)-acrylamide] | – | – | 162 to 163 | – |
| O=C1c2ccccc2CCC1CNCCc1ccc(O)c(I)c1 (centres unmarked) [[^125I]-HEAT, reference compound] | – | – | – | 0.0589 ± 0.0187 |

More lines, in order of falling IC50 [1], values ahead:

| IC50 [1] [nM] | IC50 (human CCR-3) [nM] | melting point [°C] | Kd [1] [nM] | SMILES |
| --- | --- | --- | --- | --- |
| 215 | 6 | – | – | COc1ccc(Cl)cc1/C=C/C(=O)N[C@H](CO)CN1CCC(C(=O)c2ccc(Cl)cc2)CC1 [Example 40] |
| 210 | 125 | – | – | N#Cc1cccc(/C=C/C(=O)NCCN2CCC(C(=O)c3ccc(F)cc3)CC2)c1 [Example 1] |
| 131 | 10 | – | – | N#Cc1cccc(/C=C/C(=O)N[C@H](Cc2ccco2)CN2CCC(C(=O)c3ccc(F)cc3)CC2)c1 [Example 23] |
| 121 | 13 | – | – | COc1ccc(C#N)cc1/C=C/C(=O)N[C@H](Cc1cnc[nH]1)CN1CCC(C(=O)c2ccc(F)cc2)CC1 [Example 30] |
| 94 | 13 | – | – | CCOc1ccc(Br)cc1/C=C/C(=O)N[C@H](Cc1ccccc1)CN1CCC(C(=O)c2ccc(F)cc2)CC1 [Example 4] |
| 89 | 8 | – | – | CC(C)Oc1ccc(Br)cc1/C=C/C(=O)NCCN1CCC(C(=O)c2ccc(F)cc2)CC1 [Example 20] |
| 72 | 2 | – | – | COc1ccc(C#N)cc1/C=C/C(=O)N[C@H](Cc1ccco1)CN1CCC(C(=O)c2ccc(F)cc2)CC1 [Example 28] |
| 58 | 5 | – | – | COc1ccc(Br)cc1/C=C/C(=O)N[C@H](Cc1cccnc1)CN1CCC(C(=O)c2ccc(F)cc2)CC1 [Example 9] |
| 53 | 26 | – | – | COc1ccc(Br)cc1/C=C/C(=O)NCCN1CCC(C(=O)c2ccc(Cl)cc2)CC1 [Example 13, (E)-3-(5-Bromo-2-methoxy-phenyl)-N-{2-[4-(4-chloro-benzoyl)-piperidin-1-yl]-ethyl}-acrylamide] |
| 48 | 15 | – | – | COc1ccc(Br)cc1/C=C/C(=O)NCCN1CCC(C(=O)c2ccc(F)cc2)CC1 [Example 7] |
